{
  "source": "patent US10426775B2",
  "about": "“Methods for treating Friedreich's ataxia with etravirine” (Fratagene Therapeutics srl, priority 2017, dated 2019)",
  "type_in_all_cases": "cell-based, human",
  "key": {"[1]": {"system": "GM16214 and GM16215 lymphoblasts", "experiment": "Cell viability (XTT) after H2O2 treatment of lymphoblasts", "conditions": "500 nM etravirine 24 h", "experimental": "Cells were treated with etravirine 500 nM for 24 h, then transferred (40000 cells/100 ul/well) into 96-well tissue culture plates. Cultures were supplemented for 16 h with 12.5 μM, 25 μM and 50 μM H2O2 (Sigma-Aldrich). After H2O2 treatment, 1 mg/ml XTT (2,3-Bis-(2-Methoxy-4-Nitro-5-Sulfophenyl)-2H-Tetrazolium-5-Carboxanilide) (INVITROGEN™, Thermo Fisher Scientific, Waltham, Mass. USA) and 0.25% Phenazine methosulfate (PMS, Fisher Scientific, Thermo Fisher Scientific, Waltham, Mass. USA) were added (25 μL/well) and cells were incubated for additional 2 h. Results were expressed as the percentage of reduction of absorbance at 450 nm by calibration with the absorbance of the control (untreated) cells. […]\nFIGS. 6A to 6E show how etravirine functionally can rescue frataxin deficiency in FRDA patient cells. […] Cell extracts were resolved on SDS-PAGE and analysed by western blot with anti-frataxin antibody and anti-tubulin as a loading control. […] Aconitase activity was measured spectrophotometrically at 340 nm as described in the Methods section. Data represent the average of three (C) or five (D) independent experiments±S.E.M. p-values were calculated with Student's t-test (*p<0.05) E): Lymphoblasts derived from FRDA patient (GM16214) or from the unaffected carrier parent (GM16215), were either treated with 500 nM etravirine for 24 hrs or with vehicle only. […]"}, "frataxin precursor": {"system": "frataxin precursor", "experiment": "Western blot of frataxin in HEK293 cells expressing only endogenous frataxin", "conditions": "10 μM etravirine", "experimental": "Total cell extracts were prepared in lysis buffer (50 mM Tris-HCl, pH 7.5, 150 mM NaCl, 1% Igepal CA-630, 5 mM EDTA, 5 mM EGTA) supplemented with complete protease inhibitor cocktail (Roche Diagnostics, Indianapolis, Ind., USA). Lysates were clarified by centrifugation and supernatants were mixed with 4× Laemmli sample buffer (50 mM Tris pH 6.8, 2% SDS, 10% gliycerol, 0.0025% bromophenol blue, 5% beta-mercaptoethanol), boiled for 5 min, resolved by precast 12% SDS-PAGE gels (Bio-Rad Laboratories, Hercules, Calif., USA) and transferred to […] nitrocellulose membrane (TRANS-BLOT® TURBO™ Transfer pack, Bio-Rad). […] The immunoreactive bands were detected by ECL (GE Healthcare, Chalfont St. Giles, UK) and imaged with a ChemiDoc XRS system (Bio-Rad). […] All values are expressed as means±1 S.E.M.\nThe identified candidate drugs were individually validated for their ability to promote frataxin accumulation in different cell types. […] Protein extracts from the cell lines were resolved on SDS-PAGE and analyzed by western blot with anti-frataxin antibody and anti-tubulin as a loading control. […]\n(§1) HEK 293-fxn stably expressing frataxin (A), HEK 293 (B), or FRDA lymphoblast cell line GM16203 (C) were treated with 10 μM etravirine for the indicated time points. Protein extracts were resolved on SDS-PAGE and analyzed by western blot with anti-frataxin antibody and anti-tubulin as a loading control. […]"}, "frataxin-deficient cells": {"system": "frataxin-deficient cells", "experiment": "Toxic effect and cell viability of etravirine-treated frataxin-deficient cells", "conditions": "any of the tested doses"}, "[2]": {"system": "newly synthesized frataxin mRNA", "experiment": "Nascent frataxin transcripts (EU metabolic labeling, Click-iT capture, real-time PCR) in HEK293-fxn", "conditions": "10 μM, 4 or 8 hours", "description": "We then investigated whether the observed increase in frataxin protein levels is due to an upregulation of the frataxin mRNA, either promoted by an increase in the […] rate of frataxin mRNA or by its stabilization. To understand whether etravirine promotes de novo synthesis of frataxin mRNA, we metabolically labeled nascent transcripts through the incorporation of 5-ethynyl uridine (EU). Through a click chemistry-based reaction, biotin was then conjugated to EU-labelled transcripts, thus allowing selective isolation and analysis of newly synthesized mRNA. We therefore quantitatively analyzed the relative amount of newly synthesized frataxin mRNA in etravirine-treated HEK293-fxn cells, compared to untreated control cells. […] We then analyzed the effect of etravirine on the decay of frataxin transcript observed upon treatment with actinomycin. HEK293-fxn cells were treated with actinomycin for 4, 8 or 12 hours in the presence or absence of etravirine and frataxin mRNA was quantitated by RT-PCR.\nas §1, with “control. Etr: etravirine; tub: tubulin; fxn pre: frataxin precursor.” for “control.”"}},
  "data": [
    {"smiles": "Cc1cc(C#N)cc(C)c1Oc1nc(Nc2ccc(C#N)cc2)nc(N)c1Br", "note": "[etravirine]", "values": [
      {"measurement": "protection from H2O2-induced cell death", "setting": "[1]; GM16214 patient lymphoblasts, then 12.5, 25, 50 μM H2O2 for 16 h", "value": "significantly protects"},
      {"measurement": "cell viability after H2O2 in healthy control cells upon etravirine treatment", "setting": "[1]; GM16215 lymphoblasts, then H2O2 for 16 h", "value": "no further improvement"},
      {"measurement": "frataxin precursor accumulation", "setting": "frataxin precursor", "value": "can also be detected"},
      {"measurement": "toxic effect on frataxin-deficient cells", "setting": "frataxin-deficient cells", "value": "does not show any toxic effect"},
      {"measurement": "cell viability", "setting": "frataxin-deficient cells; frataxin-deficient cells", "value": "does not affect cell viability"},
      {"measurement": "relative amount of newly synthesized frataxin mRNA vs untreated control cells", "setting": "[2]", "value": "did not observe any difference"}
    ]}
  ]
}
